Measurements reported in paper PMC3914206.

Key:
Assay in all cases: KiNativ chemical proteomics profiling in HeLa and PC3 cell lysates
Format in all cases: binding
[1] = molecular target: T1, selected panels of kinases in HeLa and PC3 cell lysates (Homo sapiens, UniProt O14936); conditions: 10 uM; proteome PC3; peptide ETGQQFAVkIVDVAK; labeling site Lys1
T1 construct: endogenous in cells; host or cells: HeLa and PC3 cell lysates

[2] = molecular target: T2, selected panels of kinases in HeLa and PC3 cell lysates (Homo sapiens, UniProt O75716); conditions: 10 uM, peptide DLk[…], labeling site Lys2
T2 construct: endogenous in cells; host or cells: HeLa and PC3 cell lysates
T2 sequence (O75716 whole entry): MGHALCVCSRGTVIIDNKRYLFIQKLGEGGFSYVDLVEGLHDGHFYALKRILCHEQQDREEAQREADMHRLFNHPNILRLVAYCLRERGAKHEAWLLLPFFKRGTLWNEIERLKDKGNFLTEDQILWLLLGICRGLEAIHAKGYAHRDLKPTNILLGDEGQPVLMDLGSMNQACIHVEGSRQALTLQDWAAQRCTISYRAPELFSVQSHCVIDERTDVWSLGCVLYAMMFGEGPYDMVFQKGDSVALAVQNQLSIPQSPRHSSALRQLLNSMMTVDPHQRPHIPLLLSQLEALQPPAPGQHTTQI

[3] = molecular target: T3, selected panels of kinases in HeLa and PC3 cell lysates (Homo sapiens, UniProt P50750); conditions: 10 uM; proteome PC3; peptide DMkAANVLITR; labeling site Lys2
T3 construct: endogenous in cells; host or cells: HeLa and PC3 cell lysates
T3 sequence (P50750 whole entry): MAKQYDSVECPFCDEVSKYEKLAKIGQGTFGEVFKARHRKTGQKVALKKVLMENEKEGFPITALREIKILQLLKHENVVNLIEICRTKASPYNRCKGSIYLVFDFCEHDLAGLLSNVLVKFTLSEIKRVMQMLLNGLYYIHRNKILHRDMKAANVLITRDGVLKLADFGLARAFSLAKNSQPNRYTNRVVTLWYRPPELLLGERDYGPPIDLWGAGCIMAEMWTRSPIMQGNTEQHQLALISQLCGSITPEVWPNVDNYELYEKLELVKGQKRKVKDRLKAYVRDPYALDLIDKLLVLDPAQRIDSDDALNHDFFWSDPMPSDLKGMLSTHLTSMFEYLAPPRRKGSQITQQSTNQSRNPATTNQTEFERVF

[4] = molecular target: T4, selected panels of kinases in HeLa and PC3 cell lysates (Homo sapiens, UniProt P51812); conditions: 10 uM; for % Inhibition RSK2 domain1: peptide LTDFGLSkESIDHEKK, labeling site Activation Loop
T4 construct: endogenous in cells; host or cells: HeLa and PC3 cell lysates
T4 sequence (P51812 whole entry, the tested form may be a part): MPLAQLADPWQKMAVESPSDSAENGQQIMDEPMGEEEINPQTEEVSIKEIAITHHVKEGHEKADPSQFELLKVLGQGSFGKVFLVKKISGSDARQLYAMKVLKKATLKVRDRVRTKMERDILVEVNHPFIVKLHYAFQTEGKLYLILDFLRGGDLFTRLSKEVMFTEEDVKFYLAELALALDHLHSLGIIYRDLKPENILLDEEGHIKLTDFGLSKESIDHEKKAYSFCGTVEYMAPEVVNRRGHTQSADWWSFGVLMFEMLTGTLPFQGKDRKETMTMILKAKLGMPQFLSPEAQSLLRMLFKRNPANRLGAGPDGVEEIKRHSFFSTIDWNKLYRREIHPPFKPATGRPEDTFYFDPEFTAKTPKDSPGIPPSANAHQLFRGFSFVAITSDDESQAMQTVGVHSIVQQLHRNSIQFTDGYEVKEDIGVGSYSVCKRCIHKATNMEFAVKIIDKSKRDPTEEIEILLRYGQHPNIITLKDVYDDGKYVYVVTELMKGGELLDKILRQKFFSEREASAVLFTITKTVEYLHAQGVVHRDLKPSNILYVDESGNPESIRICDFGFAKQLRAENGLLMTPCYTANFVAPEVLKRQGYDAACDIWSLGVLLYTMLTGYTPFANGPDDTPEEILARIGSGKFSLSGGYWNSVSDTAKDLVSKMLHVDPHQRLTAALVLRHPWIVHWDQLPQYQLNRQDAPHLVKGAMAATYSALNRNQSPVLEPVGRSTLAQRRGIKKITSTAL

[5] = molecular target: T5, selected panels of kinases in HeLa and PC3 cell lysates (Homo sapiens, UniProt Q09013); conditions: 10 uM; proteome HEL; peptide DIkPDNILLDR; labeling site Lys2
T5 construct: endogenous in cells; host or cells: HeLa and PC3 cell lysates

[6] = molecular target: T6, selected panels of kinases in HeLa and PC3 cell lysates (Homo sapiens, UniProt Q13418); conditions: 10 uM
T6 construct: endogenous in cells; host or cells: HeLa and PC3 cell lysates
T6 sequence (Q13418 1-452): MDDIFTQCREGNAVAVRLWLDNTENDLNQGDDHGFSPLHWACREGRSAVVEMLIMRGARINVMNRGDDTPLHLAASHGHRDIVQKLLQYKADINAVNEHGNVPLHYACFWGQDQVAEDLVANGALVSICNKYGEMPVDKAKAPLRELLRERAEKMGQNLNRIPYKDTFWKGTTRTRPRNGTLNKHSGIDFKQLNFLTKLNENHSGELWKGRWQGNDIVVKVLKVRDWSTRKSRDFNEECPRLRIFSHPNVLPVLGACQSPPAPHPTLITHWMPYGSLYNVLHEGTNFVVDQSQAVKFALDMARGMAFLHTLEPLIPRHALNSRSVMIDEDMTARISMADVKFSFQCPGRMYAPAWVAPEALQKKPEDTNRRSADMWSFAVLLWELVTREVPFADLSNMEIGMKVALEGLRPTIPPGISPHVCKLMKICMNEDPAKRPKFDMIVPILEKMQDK

[7] = molecular target: T7, selected panels of kinases in HeLa and PC3 cell lysates (Homo sapiens, UniProt Q53H12); conditions: 10 uM; proteome PC3; peptide […]kGK; labeling site ATP
T7 construct: endogenous in cells; host or cells: HeLa and PC3 cell lysates
T7 sequence (Q53H12 whole entry): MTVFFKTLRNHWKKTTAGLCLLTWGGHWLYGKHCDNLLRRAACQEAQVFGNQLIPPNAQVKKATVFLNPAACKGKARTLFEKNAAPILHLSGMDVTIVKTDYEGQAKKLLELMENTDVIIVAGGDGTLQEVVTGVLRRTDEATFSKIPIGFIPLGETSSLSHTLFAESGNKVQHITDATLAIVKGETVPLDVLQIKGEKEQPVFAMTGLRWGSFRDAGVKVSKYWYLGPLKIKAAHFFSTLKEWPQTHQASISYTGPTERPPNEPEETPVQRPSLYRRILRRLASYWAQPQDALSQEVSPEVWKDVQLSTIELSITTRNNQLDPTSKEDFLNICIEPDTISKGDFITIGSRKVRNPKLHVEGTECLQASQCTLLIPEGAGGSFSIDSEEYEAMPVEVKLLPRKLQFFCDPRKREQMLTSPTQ

[8] = molecular target: T8, selected panels of kinases in HeLa and PC3 cell lysates (Homo sapiens, UniProt Q6PHR2); conditions: 10 uM; ULK3; peptide EVVAIkCVAK; proteome HEL; labeling site Lys1
T8 construct: endogenous in cells; host or cells: HeLa and PC3 cell lysates
T8 sequence (Q6PHR2 whole entry): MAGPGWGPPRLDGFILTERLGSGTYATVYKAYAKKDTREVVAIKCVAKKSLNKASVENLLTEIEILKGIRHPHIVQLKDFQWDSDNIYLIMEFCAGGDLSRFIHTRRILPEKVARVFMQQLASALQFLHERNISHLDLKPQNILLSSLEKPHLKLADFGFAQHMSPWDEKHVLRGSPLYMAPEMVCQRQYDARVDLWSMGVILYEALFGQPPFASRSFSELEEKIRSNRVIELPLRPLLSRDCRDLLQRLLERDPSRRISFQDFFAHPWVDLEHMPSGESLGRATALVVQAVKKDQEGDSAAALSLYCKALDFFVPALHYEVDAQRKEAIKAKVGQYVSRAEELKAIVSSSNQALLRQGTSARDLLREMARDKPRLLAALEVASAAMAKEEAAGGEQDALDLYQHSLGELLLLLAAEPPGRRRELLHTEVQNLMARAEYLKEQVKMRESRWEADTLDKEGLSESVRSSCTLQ

[9] = molecular target: T9, selected panels of kinases in HeLa and PC3 cell lysates (Homo sapiens, UniProt Q9NWZ3); conditions: 10 uM, peptide DIk[…], labeling site Lys2
T9 construct: endogenous in cells; host or cells: HeLa and PC3 cell lysates
T9 sequence (Q9NWZ3 1-460): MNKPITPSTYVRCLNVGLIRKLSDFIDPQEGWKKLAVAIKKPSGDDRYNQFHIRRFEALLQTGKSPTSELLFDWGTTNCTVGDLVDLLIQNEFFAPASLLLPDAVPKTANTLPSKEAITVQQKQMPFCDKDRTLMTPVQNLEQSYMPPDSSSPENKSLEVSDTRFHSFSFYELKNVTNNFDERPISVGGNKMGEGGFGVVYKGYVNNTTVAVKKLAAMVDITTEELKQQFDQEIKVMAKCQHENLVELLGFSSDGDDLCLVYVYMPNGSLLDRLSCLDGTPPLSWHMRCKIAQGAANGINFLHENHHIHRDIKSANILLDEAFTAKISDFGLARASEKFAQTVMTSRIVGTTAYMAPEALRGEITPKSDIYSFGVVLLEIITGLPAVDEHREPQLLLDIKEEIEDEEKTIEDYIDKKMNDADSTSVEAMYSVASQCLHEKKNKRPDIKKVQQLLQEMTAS

[10] = molecular target: T10, selected panels of kinases in HeLa and PC3 cell lysates (Homo sapiens, UniProt Q9NYL2); conditions: 10 uM, ZAK, peptide […]k, labeling site Lys1
T10 construct: endogenous in cells; host or cells: HeLa and PC3 cell lysates
T10 sequence (Q9NYL2 whole entry): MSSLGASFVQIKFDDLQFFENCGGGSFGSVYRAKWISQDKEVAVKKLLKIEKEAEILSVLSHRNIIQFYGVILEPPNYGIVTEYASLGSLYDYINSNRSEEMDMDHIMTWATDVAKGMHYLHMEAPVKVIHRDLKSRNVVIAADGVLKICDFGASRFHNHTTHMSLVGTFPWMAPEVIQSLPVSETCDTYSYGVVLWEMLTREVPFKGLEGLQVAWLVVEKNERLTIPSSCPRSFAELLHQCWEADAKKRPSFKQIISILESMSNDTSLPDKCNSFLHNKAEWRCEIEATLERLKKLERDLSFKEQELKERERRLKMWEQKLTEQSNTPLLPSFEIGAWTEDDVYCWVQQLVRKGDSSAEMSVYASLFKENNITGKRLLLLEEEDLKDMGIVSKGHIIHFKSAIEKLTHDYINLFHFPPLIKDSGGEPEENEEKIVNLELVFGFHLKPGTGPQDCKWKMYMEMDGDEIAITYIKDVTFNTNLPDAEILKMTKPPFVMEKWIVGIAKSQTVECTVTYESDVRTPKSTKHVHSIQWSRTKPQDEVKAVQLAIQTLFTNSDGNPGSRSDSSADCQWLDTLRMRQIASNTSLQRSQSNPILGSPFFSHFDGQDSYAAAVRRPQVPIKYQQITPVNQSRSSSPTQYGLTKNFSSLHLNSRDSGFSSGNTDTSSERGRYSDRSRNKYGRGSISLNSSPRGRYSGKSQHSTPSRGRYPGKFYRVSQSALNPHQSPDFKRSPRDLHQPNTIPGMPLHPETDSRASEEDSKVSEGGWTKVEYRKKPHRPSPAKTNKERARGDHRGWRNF

[11] = molecular target: T11, selected panels of kinases in HeLa and PC3 cell lysates (Homo sapiens, UniProt Q9Y2U5); conditions: 10 uM, proteome PC3, labeling site Lys1
T11 construct: endogenous in cells; host or cells: HeLa and PC3 cell lysates
T11 sequence (Q9Y2U5 1-619): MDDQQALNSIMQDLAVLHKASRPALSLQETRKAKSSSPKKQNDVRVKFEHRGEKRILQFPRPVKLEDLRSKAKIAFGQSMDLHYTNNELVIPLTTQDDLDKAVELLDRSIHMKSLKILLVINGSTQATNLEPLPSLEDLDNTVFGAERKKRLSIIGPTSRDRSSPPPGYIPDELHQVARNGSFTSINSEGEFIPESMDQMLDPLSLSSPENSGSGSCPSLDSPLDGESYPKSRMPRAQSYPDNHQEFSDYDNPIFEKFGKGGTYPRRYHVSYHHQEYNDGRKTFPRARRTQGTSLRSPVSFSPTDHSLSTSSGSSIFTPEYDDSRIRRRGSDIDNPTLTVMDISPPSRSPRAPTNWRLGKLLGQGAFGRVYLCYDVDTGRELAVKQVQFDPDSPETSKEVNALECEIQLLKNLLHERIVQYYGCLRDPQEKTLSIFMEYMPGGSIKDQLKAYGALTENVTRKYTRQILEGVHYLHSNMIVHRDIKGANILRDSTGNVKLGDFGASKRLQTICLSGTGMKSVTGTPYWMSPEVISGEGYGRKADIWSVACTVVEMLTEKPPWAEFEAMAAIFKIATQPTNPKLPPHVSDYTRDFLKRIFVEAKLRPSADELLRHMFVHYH

[12] = molecular target: T12, selected panels of kinases in HeLa and PC3 cell lysates (Homo sapiens, UniProt Q9Y5S2); conditions: 10 uM, proteome PC3
T12 construct: endogenous in cells; host or cells: HeLa and PC3 cell lysates
T12 sequence (Q9Y5S2 whole entry): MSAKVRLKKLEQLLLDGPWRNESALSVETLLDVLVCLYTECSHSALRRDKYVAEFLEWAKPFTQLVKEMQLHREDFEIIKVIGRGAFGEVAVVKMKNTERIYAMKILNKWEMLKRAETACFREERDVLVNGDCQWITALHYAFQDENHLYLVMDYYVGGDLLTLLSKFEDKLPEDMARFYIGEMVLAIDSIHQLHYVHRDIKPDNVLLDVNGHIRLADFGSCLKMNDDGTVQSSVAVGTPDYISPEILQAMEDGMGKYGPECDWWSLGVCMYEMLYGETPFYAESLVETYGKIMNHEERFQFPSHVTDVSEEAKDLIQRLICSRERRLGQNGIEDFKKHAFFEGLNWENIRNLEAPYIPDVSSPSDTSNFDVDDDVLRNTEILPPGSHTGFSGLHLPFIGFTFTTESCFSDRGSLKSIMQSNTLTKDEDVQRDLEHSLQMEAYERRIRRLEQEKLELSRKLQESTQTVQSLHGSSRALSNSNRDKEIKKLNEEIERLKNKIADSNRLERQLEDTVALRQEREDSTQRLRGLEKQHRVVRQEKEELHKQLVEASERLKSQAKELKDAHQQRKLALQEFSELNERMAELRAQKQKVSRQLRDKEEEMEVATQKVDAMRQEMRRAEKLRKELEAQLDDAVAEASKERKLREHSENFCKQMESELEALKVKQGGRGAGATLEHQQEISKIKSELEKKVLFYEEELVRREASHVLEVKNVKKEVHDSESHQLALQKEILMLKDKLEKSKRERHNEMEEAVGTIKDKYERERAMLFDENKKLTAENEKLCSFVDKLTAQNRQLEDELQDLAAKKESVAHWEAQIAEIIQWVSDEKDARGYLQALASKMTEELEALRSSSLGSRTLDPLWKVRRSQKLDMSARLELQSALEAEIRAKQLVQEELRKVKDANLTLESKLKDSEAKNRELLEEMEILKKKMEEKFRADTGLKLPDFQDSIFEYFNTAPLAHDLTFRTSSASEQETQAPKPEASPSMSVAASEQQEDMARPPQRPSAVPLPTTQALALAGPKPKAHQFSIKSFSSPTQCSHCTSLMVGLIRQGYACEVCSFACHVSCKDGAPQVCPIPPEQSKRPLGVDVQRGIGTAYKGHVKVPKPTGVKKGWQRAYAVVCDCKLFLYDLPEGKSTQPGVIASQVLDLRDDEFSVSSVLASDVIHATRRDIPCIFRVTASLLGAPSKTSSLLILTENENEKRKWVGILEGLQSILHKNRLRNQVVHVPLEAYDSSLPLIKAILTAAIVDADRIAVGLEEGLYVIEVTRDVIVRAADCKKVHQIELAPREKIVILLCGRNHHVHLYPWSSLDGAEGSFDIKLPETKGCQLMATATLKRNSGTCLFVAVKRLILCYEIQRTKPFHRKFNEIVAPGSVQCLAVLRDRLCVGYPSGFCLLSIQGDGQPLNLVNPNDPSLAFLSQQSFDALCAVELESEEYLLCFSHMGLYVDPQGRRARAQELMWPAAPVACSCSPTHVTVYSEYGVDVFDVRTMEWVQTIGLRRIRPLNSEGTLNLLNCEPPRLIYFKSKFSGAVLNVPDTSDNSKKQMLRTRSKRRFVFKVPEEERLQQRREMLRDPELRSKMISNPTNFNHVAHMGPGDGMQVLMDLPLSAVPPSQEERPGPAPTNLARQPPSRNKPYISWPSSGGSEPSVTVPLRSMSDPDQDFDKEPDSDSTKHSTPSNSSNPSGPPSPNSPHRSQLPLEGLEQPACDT

[13] = peptide DLk[…], proteome PC3, labeling site Lys2
[14] = peptide Sk[…], proteome HEL, labeling site Protein Kinase Domain
[15] = peptide Sk[…], proteome PC3, labeling site Protein Kinase Domain
[16] = proteome HEL, peptide WQGNDIVVkVLK, labeling site Lys1
[17] = proteome PC3, peptide ISMADVkFSFQCPGR, labeling site Protein Kinase Domain
[18] = proteome PC3, peptide WQGNDIVVkVLK, labeling site Lys1
[19] = peptide DIk[…], labeling site Lys2
[20] = peptide […]kLPETK, labeling site Other

COc1cc(C(=O)N2CCC(N3CCN(C)CC3)CC2)ccc1Nc1ncc2c(n1)N(C1CCCC1)c1ccccc1C(=O)N2C [Compound 25, 11-cyclopentyl-2-((2-methoxy-4-(4-(4-methylpiperazin-1-yl)piperidine-1-carbonyl)phenyl)amino)-5-methyl-5H-benzo[e]pyrimido[5,4-b][1,4]diazepin-6(11H)-one]
% Inhibiton, CASK [1]: -0.2% | % Inhibiton, MPSK1 ([2]; proteome HEL): 29.5% | % Inhibiton, MPSK1 ([2]; proteome PC3): -4.3% | % Inhibiton, CDK9 [3]: 10.0% | % Inhibition RSK2 domain1 ([4]; proteome HEL): 1.2% | % Inhibition RSK2 domain2 [4, 13]: -4.3% | % Inhibition RSK2 domain2 [4, 14]: 1.3% | % Inhibition RSK2 domain2 [4, 15]: 1.9% | % Inhibiton, DMPK1 [5]: 10.0% | % Inhibiton, ILK [6, 16]: -3.0% | % Inhibiton, ILK [6, 17]: 8.4% | % Inhibiton, ILK [6, 18]: -5.9% | % Inhibiton, AGK [7]: 1.8% | % Inhibition ULK3 [8]: -3.7% | % Inhibiton, IRAK4 ([9]; proteome HEL): 13.4% | % Inhibiton, IRAK4 ([9]; proteome PC3): -7.4% | % Inhibition ZAK ([10]; proteome HEL): -6.6% | % Inhibition ZAK ([10]; proteome PC3): -9.3% | % Inhibiton, MAP3K2 ([11]; peptide ELAVk[…]): 15.5% | % Inhibiton, MAP3K2 ([11]; peptide […]k[…]): 23.7% | % Inhibiton, MRCKb [12, 19]: -5.1% | % Inhibiton, MRCKb [12, 20]: 6.2%

CCOc1cc(C(=O)N2CCC(N3CCN(C)CC3)CC2)ccc1Nc1ncc2c(n1)N(C1CCCC1)c1ccccc1C(=O)N2C [Compound 26]
% Inhibiton, CASK [1]: -36.1% | % Inhibiton, MPSK1 ([2]; proteome HEL): -9.4% | % Inhibiton, MPSK1 ([2]; proteome PC3): 5.8% | % Inhibiton, CDK9 [3]: 0.7% | % Inhibition RSK2 domain1 ([4]; proteome HEL): 7.2% | % Inhibition RSK2 domain2 [4, 13]: -0.5% | % Inhibition RSK2 domain2 [4, 14]: 7.4% | % Inhibition RSK2 domain2 [4, 15]: -14.6% | % Inhibiton, DMPK1 [5]: 29.4% | % Inhibiton, ILK [6, 16]: 19.8% | % Inhibiton, ILK [6, 17]: 2% | % Inhibiton, ILK [6, 18]: -69.5% | % Inhibiton, AGK [7]: 15.3% | % Inhibition ULK3 [8]: 2.5% | % Inhibiton, IRAK4 ([9]; proteome HEL): -2.3% | % Inhibiton, IRAK4 ([9]; proteome PC3): 1.4% | % Inhibition ZAK ([10]; proteome HEL): 13.4% | % Inhibition ZAK ([10]; proteome PC3): -25.5% | % Inhibiton, MAP3K2 ([11]; peptide ELAVk[…]): -11.2% | % Inhibiton, MAP3K2 ([11]; peptide […]k[…]): -12.3% | % Inhibiton, MRCKb [12, 19]: 1.8% | % Inhibiton, MRCKb [12, 20]: 9.2%
